Laboratory results as given in US8524755B2 (priority 2009, dated 2013).

Experiments:
Adrenergic α2 (ns) = test: Binding α2 (ns) (aa); parameters: species or system rat
Experimental: (§1) Radioligand binding assay methods utilized to measure the activity of compounds of the invention will be familiar to those skilled in the art. In each assay case, the assay components such as, for example, the cell-type, ligand, reference compound and the like, will be familiar to practitioners of such an assay.
(§2) Analysis and Expression of Results: Compounds of the invention were tested in the biochemical assays and percent inhibition of specific binding was determined. The specific ligand binding to the receptors is defined as the difference between the total binding and the nonspecific binding determined in the presence of an excess of unlabelled ligand. The results are expressed as a percent inhibition of control specific binding (100−((measured specific binding/control specific binding)×100)) obtained in the presence of test compounds.

β1 (h) = target: T1, β1 (h) (Homo sapiens, UniProt P08588); test: Binding β1 (h) (ag); conditions: read-out: % Inhibition of Control Specific Binding @ 10 μM
T1 construct: expressed in transfected cells; host or cells: HEK-293 cells
T1 sequence (P08588 whole entry): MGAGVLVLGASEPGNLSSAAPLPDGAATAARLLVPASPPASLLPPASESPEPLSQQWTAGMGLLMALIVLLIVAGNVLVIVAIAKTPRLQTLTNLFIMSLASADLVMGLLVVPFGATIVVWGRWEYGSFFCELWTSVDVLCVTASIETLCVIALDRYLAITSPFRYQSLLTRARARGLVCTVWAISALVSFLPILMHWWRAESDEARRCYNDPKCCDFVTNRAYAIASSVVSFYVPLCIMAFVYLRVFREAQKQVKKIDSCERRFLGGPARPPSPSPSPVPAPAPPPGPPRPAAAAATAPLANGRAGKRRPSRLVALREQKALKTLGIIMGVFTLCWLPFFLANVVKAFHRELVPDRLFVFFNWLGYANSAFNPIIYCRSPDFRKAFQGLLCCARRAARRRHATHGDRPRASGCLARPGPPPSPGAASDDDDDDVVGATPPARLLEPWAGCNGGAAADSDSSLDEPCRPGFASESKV
Experimental: as §1, §2

[1] = system: Benzodiazepine BZD (central); test: Binding BZD (central) (ag); parameters: species or system rat
Experimental: as §1, §2

Bradykinin B2 (h) = target: T2, Bradykinin B2 (h) (Homo sapiens, UniProt P30411); test: Binding B2 (h) (ag); conditions: read-out: % Inhibition of Control Specific Binding @ 10 μM
T2 construct: expressed in transfected cells; host or cells: CHO cells
T2 sequence (P30411 1-391): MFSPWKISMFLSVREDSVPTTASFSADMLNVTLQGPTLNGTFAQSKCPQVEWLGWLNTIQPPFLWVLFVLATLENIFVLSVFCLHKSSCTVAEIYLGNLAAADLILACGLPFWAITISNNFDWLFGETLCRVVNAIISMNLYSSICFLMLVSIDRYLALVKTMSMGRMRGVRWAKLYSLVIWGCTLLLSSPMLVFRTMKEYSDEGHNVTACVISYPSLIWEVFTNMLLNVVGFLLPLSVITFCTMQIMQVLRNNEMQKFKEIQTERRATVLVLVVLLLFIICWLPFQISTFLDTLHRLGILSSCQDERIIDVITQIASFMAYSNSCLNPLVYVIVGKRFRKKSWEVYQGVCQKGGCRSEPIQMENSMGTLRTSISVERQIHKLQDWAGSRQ
Experimental: as §1, §2

Dopamine D2S (h) = target: T3, Dopamine D2S (h) (Homo sapiens, UniProt P14416); test: Binding D2S (h) (aa); conditions: read-out: % Inhibition of Control Specific Binding @ 10 μM
T3 construct: expressed in transfected cells; host or cells: HEK-293 cells
T3 sequence (P14416 1-414 isoform P14416-2): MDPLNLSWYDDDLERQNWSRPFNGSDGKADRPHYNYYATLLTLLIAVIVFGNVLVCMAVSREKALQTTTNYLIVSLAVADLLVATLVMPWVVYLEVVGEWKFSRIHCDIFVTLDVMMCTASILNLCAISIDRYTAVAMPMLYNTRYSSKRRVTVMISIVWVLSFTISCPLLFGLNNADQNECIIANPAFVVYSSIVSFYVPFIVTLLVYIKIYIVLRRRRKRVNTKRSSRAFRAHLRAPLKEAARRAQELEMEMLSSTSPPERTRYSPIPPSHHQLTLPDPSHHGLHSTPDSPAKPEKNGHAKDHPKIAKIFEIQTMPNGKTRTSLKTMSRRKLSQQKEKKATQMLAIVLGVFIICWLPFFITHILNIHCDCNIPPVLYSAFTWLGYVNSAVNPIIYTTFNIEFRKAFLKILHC
Experimental: as §1, §2

Dopamine D3 (h) = target: T4, Dopamine D3 (h) (Homo sapiens, UniProt P35462); test: Binding D3 (h) (aa); conditions: read-out: % Inhibition of Control Specific Binding @ 10 μM
T4 construct: expressed in transfected cells; host or cells: CHO cells
T4 sequence (P35462 whole entry): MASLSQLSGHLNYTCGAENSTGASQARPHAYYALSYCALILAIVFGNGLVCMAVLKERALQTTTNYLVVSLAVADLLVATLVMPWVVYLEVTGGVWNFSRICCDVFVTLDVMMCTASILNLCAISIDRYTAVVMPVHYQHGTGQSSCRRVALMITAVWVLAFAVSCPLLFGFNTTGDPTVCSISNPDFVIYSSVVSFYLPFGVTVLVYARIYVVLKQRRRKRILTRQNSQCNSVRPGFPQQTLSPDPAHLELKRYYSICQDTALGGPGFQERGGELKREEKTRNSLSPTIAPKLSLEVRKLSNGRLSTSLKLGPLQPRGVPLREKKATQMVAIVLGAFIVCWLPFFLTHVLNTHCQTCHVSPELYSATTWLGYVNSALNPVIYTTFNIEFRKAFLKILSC
Experimental: as §1, §2

Dopamine D4.4 (h) = target: T5, Dopamine D4.4 (h) (Homo sapiens, UniProt P21917); test: Binding D4.4 (h) (aa); conditions: read-out: % Inhibition of Control Specific Binding @ 10 μM
T5 construct: expressed in transfected cells; host or cells: CHO cells
T5 sequence (P21917 1-419): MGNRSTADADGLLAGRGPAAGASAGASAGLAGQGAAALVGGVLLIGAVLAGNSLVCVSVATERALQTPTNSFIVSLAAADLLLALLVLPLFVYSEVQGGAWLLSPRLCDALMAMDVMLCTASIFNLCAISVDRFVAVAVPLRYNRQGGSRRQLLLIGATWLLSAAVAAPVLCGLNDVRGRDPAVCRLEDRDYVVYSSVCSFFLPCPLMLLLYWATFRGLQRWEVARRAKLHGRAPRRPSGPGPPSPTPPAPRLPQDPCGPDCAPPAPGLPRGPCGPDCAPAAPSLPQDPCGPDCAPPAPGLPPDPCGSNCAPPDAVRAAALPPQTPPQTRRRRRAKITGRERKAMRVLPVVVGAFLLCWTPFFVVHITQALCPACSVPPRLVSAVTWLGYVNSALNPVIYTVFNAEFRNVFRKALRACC
Experimental: as §1, §2

Muscarinic M (ns) = test: Binding M (ns) (aa); parameters: species or system rat
Experimental: as §1, §2

[2] = system: Ca^2+ channel (L, diltiazem site) (benzothiazepines); test: Binding Ca2+ channel (L, diltiazem site) (aa); parameters: species or system rat
Experimental: as §1, §2

PDE2A (h) = target: T6, PDE2A (h) (Homo sapiens, UniProt O00408); test: Enzyme assay PDE2A (h); type: biochemical; conditions: read-out: % Inhibition of Control Values @ 10 μM
T6 construct: host or cells: Sf9 cells
T6 sequence (O00408 whole entry): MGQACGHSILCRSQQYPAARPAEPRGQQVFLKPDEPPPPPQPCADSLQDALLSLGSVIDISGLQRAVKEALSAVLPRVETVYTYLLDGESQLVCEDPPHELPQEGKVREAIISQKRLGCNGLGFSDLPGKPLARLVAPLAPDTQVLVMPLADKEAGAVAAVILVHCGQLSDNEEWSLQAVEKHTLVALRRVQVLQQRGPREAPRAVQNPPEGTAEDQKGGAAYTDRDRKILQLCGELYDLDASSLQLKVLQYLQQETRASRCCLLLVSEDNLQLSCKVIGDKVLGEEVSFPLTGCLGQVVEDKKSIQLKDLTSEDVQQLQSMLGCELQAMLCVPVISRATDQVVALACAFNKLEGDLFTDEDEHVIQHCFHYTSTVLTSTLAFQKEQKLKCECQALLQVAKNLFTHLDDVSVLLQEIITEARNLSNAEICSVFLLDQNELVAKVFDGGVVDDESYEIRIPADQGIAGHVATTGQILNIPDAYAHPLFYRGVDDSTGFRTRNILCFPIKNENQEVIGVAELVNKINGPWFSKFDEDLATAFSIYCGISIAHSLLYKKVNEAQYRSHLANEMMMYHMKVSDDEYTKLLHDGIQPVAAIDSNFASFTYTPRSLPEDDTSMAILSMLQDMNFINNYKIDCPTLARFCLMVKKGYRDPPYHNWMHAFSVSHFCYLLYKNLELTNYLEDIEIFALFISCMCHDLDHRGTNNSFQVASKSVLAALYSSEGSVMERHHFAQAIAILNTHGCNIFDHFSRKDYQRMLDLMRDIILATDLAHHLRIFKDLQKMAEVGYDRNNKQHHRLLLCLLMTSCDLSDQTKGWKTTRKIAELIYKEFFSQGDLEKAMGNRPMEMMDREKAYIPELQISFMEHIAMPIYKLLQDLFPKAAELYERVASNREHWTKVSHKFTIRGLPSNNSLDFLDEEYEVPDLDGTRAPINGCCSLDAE
Excerpt: (§3) The enzyme assays provided below will be familiar to those skilled in the art.
(§4) Analysis and Expression of Results: The results are expressed as a percent of control specific activity ((measured specific activity/control specific activity)×100) obtained in the presence of the test compounds.

PDE4D (h) = target: T7, PDE4D (h) (Homo sapiens, UniProt Q08499); test: Enzyme assay PDE4D (h); type: biochemical; conditions: read-out: % Inhibition of Control Values @ 10 μM
T7 construct: host or cells: Sf9 cells
T7 sequence (Q08499 whole entry): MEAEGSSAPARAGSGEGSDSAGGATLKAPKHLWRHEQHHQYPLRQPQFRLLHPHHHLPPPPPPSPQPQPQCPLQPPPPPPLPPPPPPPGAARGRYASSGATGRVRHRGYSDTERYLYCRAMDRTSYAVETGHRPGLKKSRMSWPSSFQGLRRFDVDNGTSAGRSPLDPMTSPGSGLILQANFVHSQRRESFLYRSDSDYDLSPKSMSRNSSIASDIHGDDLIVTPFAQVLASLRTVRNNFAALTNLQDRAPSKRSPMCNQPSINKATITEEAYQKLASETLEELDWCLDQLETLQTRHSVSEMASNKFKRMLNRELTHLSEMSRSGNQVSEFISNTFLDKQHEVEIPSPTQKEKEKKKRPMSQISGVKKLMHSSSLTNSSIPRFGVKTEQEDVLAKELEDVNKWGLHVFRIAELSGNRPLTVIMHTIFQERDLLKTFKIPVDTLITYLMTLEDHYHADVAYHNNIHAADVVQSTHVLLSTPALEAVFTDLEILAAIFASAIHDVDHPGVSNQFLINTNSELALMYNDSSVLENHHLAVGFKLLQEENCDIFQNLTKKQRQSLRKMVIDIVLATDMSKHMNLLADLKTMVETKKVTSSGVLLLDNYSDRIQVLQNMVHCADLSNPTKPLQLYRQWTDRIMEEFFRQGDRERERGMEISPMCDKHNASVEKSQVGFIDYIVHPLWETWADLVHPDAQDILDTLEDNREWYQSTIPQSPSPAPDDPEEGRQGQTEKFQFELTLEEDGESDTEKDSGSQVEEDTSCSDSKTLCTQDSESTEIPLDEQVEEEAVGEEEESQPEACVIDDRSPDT
Excerpt: as §3, §4

ATPase (Na^+/K^+) = test: Enzyme assay ATPase (Na+/K+); type: biochemical, porcine
Excerpt: as §3, §4

[3] = Quantification of RD162′ metabolites in human plasma; type: in vivo; conditions: for Concentrations in Patients' Plasma Expressed as a Percentage of the Concentration of RD162′, Average / Concentrations in Patients' Plasma Expressed as a Percentage of the Concentration of RD162′, Maximum / Concentrations in Patients' Plasma Expressed as a Percentage of the Concentration of RD162′, Minimum: 18 patients; for Concentrations in Patients' Plasma Expressed as a Percentage of the Concentration of RD162′, Minimum: RD162′ 150 to 480 mg per day, approx. three months; for concentration in the plasma (in words): plasma of 18 prostate cancer patients on RD162′
Experimental: The method used to derive the above data was as follows. Electrospray LC/MS/MS Assay of RD162′ Metabolites ((MI), (MII), (MIII)):
Plasma Extraction Procedures for Concentration Determinations: A human plasma sample (50 μL) was added to a 10-mL glass tube. A 10-μL volume of IS stock solution was added to the tube, followed by addition of 1 M phosphate buffer at pH 3.0 (400 μL). The mixture was vortexed and […] (5 mL) was added. The tube was vortexed for 30 sec and then centrifuged at 4540 g for 10 min. The solvent was transferred to a glass tube and dried under air flow at 35-40° C. The sample was reconstituted with 100 μL of methanol: 0.1% formic acid in water (7:3) vortexed for 30 sec, and sonicated for 5 min. The sample was transferred to an HPLC sample vial and centrifuged at 4540 g for 5 min. A 20-μL volume was then injected onto an LC/MS/MS system for assay.
HP1100 LC Pump Initial Conditions: HPLC Column: ACE C18, 5 μM, 150×2.1 mm id. Solvents: A % 40.0; B % 60.0; C % 0.0; D % 0.0; Valve A set to channel 1; Valve B set to channel 1. Flow: 0.300 mL/min; Stop Time: 9.0 min; MM. Pressure: 0 bar; Max. Pressure: 300 bar; Oven Temperature Left: 30.0° C.; Oven Temperature Right: 30.0° C.
LC/MS/MS Parameters for RD162′ Metabolite (MI)
Instrument Parameters—Function 1: Polarity ES-; Data type: MRM data; Function type: MRM of 5 channels.
HPLC Column: ACE C18, 5 μM, 150×2.1 mm id; HP1100 LC Pump mode: Isocratic; Isocratic solvent conditions: A % 25.0; B % 75.0; C % 0.0; D % 0.0; Valve A set to channel 1; Valve B set to channel 1; Flow: 0.300 mL/min; Stop Time: 4.5 min; Min. Pressure: 0 bar; Max. Pressure: 300 bar: Oven Temperature Left: 30.0° C.; Oven Temperature Right: 30.0° C.

Q: For `CC1(C)C(=O)N(c2ccc(C#N)c(C(F)(F)F)c2)C(=S)N1c1ccc(C(=O)O)c(F)c1` [(MI), 4-(3-(4-cyano-3-(trifluoromethyl)phenyl)-5,5-dimethyl-4-oxo-2-thioxoimidazolidin-1-yl)-2-fluorobenzoic acid], which “% Inhibition of Control Specific Binding @ 10 μM” value (Adrenergic α2 (ns)) is on record?
A: −7%

Q: And the inhibition at 10 µM (β1 (h))?
A: -2%

Q: And the “% Inhibition of Control Specific Binding @ 10 μM” value [1]?
A: −35%

Q: And the inhibition at 10 µM (Bradykinin B2 (h))?
A: 2%

Q: What about the inhibition at 10 µM (Dopamine D2S (h)) of the same compound?
A: -16%

Q: And the inhibition at 10 µM (Dopamine D3 (h))?
A: 7%

Q: What about the inhibition at 10 µM (Dopamine D4.4 (h)) of the same compound?
A: 1%

Q: And the “% Inhibition of Control Specific Binding @ 10 μM” value (Muscarinic M (ns))?
A: 18%

Q: What about the “% Inhibition of Control Specific Binding @ 10 μM” value [2] of the same compound?
A: 2%

Q: And the inhibition at 10 µM (PDE2A (h))?
A: 12%

Q: And the inhibition at 10 µM (PDE4D (h))?
A: 1%

Q: And the “% Inhibition of Control Values @ 10 μM” value (ATPase (Na^+/K^+))?
A: 4%

Q: And the “Concentrations in Patients' Plasma Expressed as a Percentage of the Concentration of RD162′, Average” value [3]?
A: 60%

Q: And the “Concentrations in Patients' Plasma Expressed as a Percentage of the Concentration of RD162′, Maximum” value [3]?
A: 259%

Q: What about the “Concentrations in Patients' Plasma Expressed as a Percentage of the Concentration of RD162′, Minimum” value [3] of the same compound?
A: 16%

Q: What about the “concentration in the plasma (in words)” value [3] of the same compound?
A: high concentrations

Q: Which “% Inhibition of Control Specific Binding @ 10 μM” value (Adrenergic α2 (ns)) does the source give for `CC1(C)C(=O)N(c2ccc(C#N)c(C(F)(F)F)c2)C(=O)N1c1ccc(C(N)=O)c(F)c1` [(MIII), 4-(3-(4-cyano-3-(trifluoromethyl)phenyl)-5,5-dimethyl-2,4-dioxoimidazolidin-1-yl)-2-fluorobenzamide] here?
A: −7%

Q: What about the inhibition at 10 µM (β1 (h)) of the same compound?
A: 2%

Q: And the “% Inhibition of Control Specific Binding @ 10 μM” value [1]?
A: −20%

Q: What about the inhibition at 10 µM (Bradykinin B2 (h)) of the same compound?
A: -3%

Q: What about the inhibition at 10 µM (Dopamine D2S (h)) of the same compound?
A: -22%

Q: And the inhibition at 10 µM (Dopamine D3 (h))?
A: 0%

Q: And the inhibition at 10 µM (Dopamine D4.4 (h))?
A: 13%

Q: What about the “% Inhibition of Control Specific Binding @ 10 μM” value (Muscarinic M (ns)) of the same compound?
A: 20%

Q: And the “% Inhibition of Control Specific Binding @ 10 μM” value [2]?
A: −2%

Q: And the inhibition at 10 µM (PDE2A (h))?
A: 2%

Q: And the inhibition at 10 µM (PDE4D (h))?
A: -11%

Q: And the “% Inhibition of Control Values @ 10 μM” value (ATPase (Na^+/K^+))?
A: 3%

Q: What about the “Concentrations in Patients' Plasma Expressed as a Percentage of the Concentration of RD162′, Average” value [3] of the same compound?
A: 4%

Q: And the “Concentrations in Patients' Plasma Expressed as a Percentage of the Concentration of RD162′, Maximum” value [3]?
A: 14%

Q: What about the “Concentrations in Patients' Plasma Expressed as a Percentage of the Concentration of RD162′, Minimum” value [3] of the same compound?
A: 1%

Q: What about the “concentration in the plasma (in words)” value [3] of the same compound?
A: low concentrations

Q: Which results are given for `CNC(=O)c1ccc(N2C(=O)N(c3ccc(C#N)c(C(F)(F)F)c3)C(=O)C2(C)C)cc1F` [(MIV), 4-(3-(4-cyano-3-(trifluoromethyl)phenyl)-5,5-dimethyl-2,4-dioxoimidazolidin-1-yl)-2-fluoro-N-methylbenzamide]?
A: % Inhibition of Control Specific Binding @ 10 μM (Adrenergic α2 (ns)): −7%; inhibition at 10 µM (β1 (h)): 3%; % Inhibition of Control Specific Binding @ 10 μM [1]: −29%; inhibition at 10 µM (Bradykinin B2 (h)): 0%; inhibition at 10 µM (Dopamine D2S (h)): -17%; inhibition at 10 µM (Dopamine D3 (h)): 7%; inhibition at 10 µM (Dopamine D4.4 (h)): -15%; % Inhibition of Control Specific Binding @ 10 μM (Muscarinic M (ns)): 25%; % Inhibition of Control Specific Binding @ 10 μM [2]: 1%; inhibition at 10 µM (PDE2A (h)): 0%; inhibition at 10 µM (PDE4D (h)): -41%; % Inhibition of Control Values @ 10 μM (ATPase (Na^+/K^+)): −13%

Q: What does the source list for `CC1(C)C(=O)N(c2ccc(C#N)c(C(F)(F)F)c2)C(=S)N1c1ccc(C(N)=O)c(F)c1` [(MII), 4-(3-(4-Cyano-3-(trifluoromethyl)phenyl)-5,5-dimethyl-4-oxo-2-thioxoimidazolidin-1-yl)-2-fluorobenzamide]?
A: % Inhibition of Control Specific Binding @ 10 μM (Adrenergic α2 (ns)): −9%; inhibition at 10 µM (β1 (h)): -7%; % Inhibition of Control Specific Binding @ 10 μM [1]: −37%; inhibition at 10 µM (Bradykinin B2 (h)): -12%; inhibition at 10 µM (Dopamine D2S (h)): -8%; inhibition at 10 µM (Dopamine D3 (h)): 11%; inhibition at 10 µM (Dopamine D4.4 (h)): 9%; % Inhibition of Control Specific Binding @ 10 μM (Muscarinic M (ns)): 1%; % Inhibition of Control Specific Binding @ 10 μM [2]: 22%; inhibition at 10 µM (PDE2A (h)): 2%; inhibition at 10 µM (PDE4D (h)): -9%; % Inhibition of Control Values @ 10 μM (ATPase (Na^+/K^+)): −10%; Concentrations in Patients' Plasma Expressed as a Percentage of the Concentration of RD162′, Average [3]: 112%; Concentrations in Patients' Plasma Expressed as a Percentage of the Concentration of RD162′, Maximum [3]: 204%; Concentrations in Patients' Plasma Expressed as a Percentage of the Concentration of RD162′, Minimum [3]: 49%; concentration in the plasma (in words) [3]: high concentrations
